Legend:
[1] = test system: trypanosome plasma membrane; assay: plasma membrane integrity (SYBR Green); assay type: cell-based, Trypanosoma brucei brucei; conditions: IC99, IC90, IC50, IC10; up to 120 min
Experimental: The plasma membrane is the first barrier protecting the cell from the external environment and therefore might represent an important challenge for compounds to exert their inhibitory action. Thus, compounds 7 and 10 were assessed for their ability to induce alterations in cell integrity as previously described with a modification consisting of using an SYBR green assay. The principle of this assay is based on the fact that upon treatment with membrane disruptors, trypanosomes with compromised plasma become fluorescent as a result of SYBR green entry and fixation to the exposed DNA. Practically, in a 96-well microtiter plate, 90 µL of trypanosome suspension (2 × 10^6 cells/mL/well) was preincubated with SYBR Green (2X) (Sigma Aldrich) for 15 min at 37 °C and 5% CO2 in darkness. […] The plate was then incubated at 37 °C on a Magelan Infinite M200 multiwell plate reader (Tecan), and fluorescence was further recorded every 5 min for up to 120 min at λex = 485 and λem = 538 nm. […] The results are expressed as the mean ± SD of two experiments carried out in duplicate after deducting the background signal (wells containing HMI-9 medium) and then used to plot the fluorescence counts versus time (min) graph.

in vitro = conditions: African green monkey

Structure (SMILES)	effect on plasma membrane permeability [1]	CC50 at 48 h (in vitro) [µM]
COc1ccccc1NCc1ccc2nc(N)nc(N)c2c1 [Analog 7, 6-(((2-methoxyphenyl)amino)methyl)quinazoline-2,4-diamine]	no impairment or a rather mild effect	24.8 ± 0.87
Nc1nc(N)c2cc(CNc3cc(Cl)ccc3Cl)ccc2n1 [Analog 10, 6-(((2,5-dichlorophenyl)amino)methyl)quinazoline-2,4-diamine]	no impairment or a rather mild effect	78.2 ± 0.8

— paper PMC9571290, “Preliminary Structure–Activity Relationship Study of the MMV Pathogen Box Compound MMV675968 (2,4-Diaminoquinazoline) Unveils Novel Inhibitors of Trypanosoma brucei brucei” (Molecules, 2022)
